Assay results from EP4603105A1, “PHARMACEUTICAL COMPOSITION CONTAINING CYCLIC COMPOUND HAVING SELECTIVE KRAS INHIBITORY EFFECT AGAINST HRAS AND NRAS” (CHUGAI SEIYAKU KABUSHIKI KAISHA, priority 2022, dated 2024).
Read-outs that look alike come from different tables or passages of the source. Where a SMILES comes first, the peptide text is derived from it. Bridges are numbered along the chain shown (N, C = ends). [ ]: non-standard residue; d: D form. The star is where a group is joined. hPhe(3,5-F2-4-CF3) = N[C@@H](CCc1cc(F)c(C(F)(F)F)c(F)c1)C(=O)O; hPhe(3-Cl-4-CF3) = N[C@@H](CCc1ccc(C(F)(F)F)c(Cl)c1)C(=O)O; NPrPhe(4-CF3) = CCCN[C@@H](Cc1ccc(C(F)(F)F)cc1)C(=O)O; NEtPhe(4-Me) = CCN[C@@H](Cc1ccc(C)cc1)C(=O)O; NMeAbu(4,4,4-F3) = CN[C@@H](CC(F)(F)F)C(=O)O; NMeGly(cPent) = CN[C@H](C(=O)O)C1CCCC1; NMeD = CN[C@@H](CC(=O)O)C(=O)O; NMeL = CN[C@@H](CC(C)C)C(=O)O; hPip = O=C(O)[C@@H]1CCCCCN1; Morpholide = C1CN(*)CCO1; NMeA = CN[C@@H](C)C(=O)O; NMeAib = CNC(C)(C)C(=O)O; Nle = CCCC[C@H](N)C(=O)O; Piperidide = C1CCN(*)CC1; Ac5c = NC1(C(=O)O)CCCC1; Aze = O=C(O)[C@@H]1CCN1; X11 = CC1(C)CCN(*)C1; Sar = CNCC(=O)O

Columns and labels:
[1] = target: GDP-bound NRAS wild-type protein (Homo sapiens, UniProt P01111); assay: Binding to NRAS by surface plasmon resonance (SPR), KD and KD ratio to KRAS
Summary of the method: (§1)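 GDP-bound biotin-Avi RAS captured at ~100–300 RU, 30°C, pH 7.4 HBS containing 10 µM GDP, 10 mM MgCl2, 1 mM DTT, 0.01% Tween 20 and 4% DMSO. KD by 1:1 fitting.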

HRAS wild-type protein = HRAS wild-type protein (Homo sapiens, UniProt P01112); assay: Binding to HRAS by surface plasmon resonance (SPR), KD and KD ratio to KRAS
Summary of the method: as §1

[2] = tested on: human lung cancer strain NCI-H441; format: cell-based
Summary of the method: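 Readout: […] after the ATP-based reagent. Compound: serial dilutions in dimethyl sulfoxide.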

[3] = ratio of KD for GDP-bound NRAS wild-type protein to KD for KRAS
[4] = ratio of KD for HRAS wild-type protein to KD for KRAS
[5] = ratio of KD value for GDP-bound NRAS wild-type protein to KD value for KRAS (SPR)
[6] = ratio of KD value for HRAS wild-type protein to KD value for KRAS (SPR)

Sequence of HRAS wild-type protein (P01112 whole entry): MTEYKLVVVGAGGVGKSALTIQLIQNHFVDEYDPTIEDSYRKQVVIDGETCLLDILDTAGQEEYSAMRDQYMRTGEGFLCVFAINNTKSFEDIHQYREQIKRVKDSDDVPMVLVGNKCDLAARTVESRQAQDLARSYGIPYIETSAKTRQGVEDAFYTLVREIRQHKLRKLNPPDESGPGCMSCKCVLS
Sequence of GDP-bound NRAS wild-type protein (P01111 whole entry): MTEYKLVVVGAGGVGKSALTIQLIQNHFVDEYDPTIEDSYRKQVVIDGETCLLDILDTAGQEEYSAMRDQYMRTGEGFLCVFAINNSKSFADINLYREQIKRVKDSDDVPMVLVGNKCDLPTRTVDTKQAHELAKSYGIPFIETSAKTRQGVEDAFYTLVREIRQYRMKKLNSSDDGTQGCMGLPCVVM

CCOC[C@H]1C(=O)N[C@@H]([C@@H](C)CC)C(=O)N(C)CC(=O)N(C)[C@H]2C/C=C\CCN(C2=O)[C@@H](Cc2ccc(C(C)(F)F)cc2)C(=O)N(C)CC(=O)N[C@@H](CCc2ccc(C(F)(F)F)c(OC)c2)C(=O)N2C[C@@H](C)C[C@H]2C(=O)NC2(CC(C)(C)C2)C(=O)N(C)[C@@H](C2CCCC2)C(=O)N(C)[C@H](C(=O)N(C)CC)CC(=O)N1C [PP2699]
NRAS /KRAS [1, 3]: A (a compound having 10 or more and less than 20 is denoted as A) | HRAS /KRAS (HRAS wild-type protein; [4]): B (a compound having 3 or more and less than 10 is denoted as B) | IC50 ([2]; NCI-H441 cells, 4 days, CellTiter-Glo, read-out: NCl-H441 IC50): 14.2 nM

CCO[C@@H]1C[C@H]2C(=O)NC3(CC(F)(F)C3)C(=O)N(C)[C@@H](C(CC)CC)C(=O)N(C)[C@H](CC)CC(=O)N(C)[C@@H](CC)C(=O)N[C@@H]([C@@H](C)CC)C(=O)N(C)CC(=O)N(C)[C@H]3C/C=C\CCN(C3=O)[C@@H](Cc3ccc(C(F)(F)F)cc3)C(=O)N(C)CC(=O)N[C@@H](CCc3cc(F)c(C(F)(F)F)c(F)c3)C(=O)N2C1 [PP1626]
NRAS /KRAS [1, 5]: A (a compound having 10 or more and less than 20 is denoted as A) | HRAS /KRAS (HRAS wild-type protein; [6]): A (a compound having 10 or more and less than 20 is denoted as A) | IC50 [2]: 108 nM

CCCN1C(=O)CN(C)C(=O)CN(C)C(=O)[C@H]([C@@H](C)CC)NC(=O)[C@H](CC(C)C)N(C)C(=O)C[C@@H](C(=O)N2CCOCC2)N(C)C(=O)[C@H](CC(F)(F)F)N(C)C(=O)C2(CCCC2)NC(=O)[C@@H]2CCCN2C(=O)[C@H](CCc2cc(F)c(C(F)(F)F)c(F)c2)NC(=O)CN(C)C(=O)[C@@H]1Cc1ccc(C(F)(F)F)cc1 [PP0767] ([NMeL]I[Sar][Sar][NPrPhe(4-CF3)][Sar][hPhe(3,5-F2-4-CF3)]P[Ac5c][NMeAbu(4,4,4-F3)][NMeD]-Morpholide; lactam N-11)
NRAS /KRAS [1, 3]: B (a compound having 3 or more and less than 10 is denoted as B) | HRAS /KRAS (HRAS wild-type protein; [4]): C (A compound having a KD ratio of 0.1 or more and less than 3 is denoted as C) | IC50 [2]: 158 nM

CCO[C@@H]1C[C@H]2C(=O)NC3(CC(C)(C)C3)C(=O)N(C)[C@@H](C3CCCC3)C(=O)N(CC)[C@H](C(=O)N(C)C)CC(=O)N(C)[C@@H](CC(C)C)C(=O)N[C@@H]([C@@H](C)CC)C(=O)NCC(=O)N(C)[C@H]3C/C=C\CCN(C3=O)[C@@H](Cc3ccc(C(F)(F)F)cc3)C(=O)N(C)CC(=O)N[C@@H](CCc3cc(F)c(C(F)(F)F)c(F)c3)C(=O)N2C1 [PP1773]
NRAS /KRAS [1, 5]: A (a compound having 10 or more and less than 20 is denoted as A) | HRAS /KRAS (HRAS wild-type protein; [6]): A (a compound having 10 or more and less than 20 is denoted as A) | IC50 [2]: 39.9 nM

CC[C@H](C)[C@@H]1NC(=O)[C@H](COC)N(C)C(=O)C[C@@H](C(=O)N2CCOCC2)N(C)C(=O)[C@H](C2CCCC2)N(C)C(=O)C2(CCC2)NC(=O)[C@@H]2C[C@@H](OC)CN2C(=O)[C@H](CCc2cc(F)c(C(F)(F)F)c(F)c2)NC(=O)CN(C)C(=O)[C@H](Cc2ccc(C(F)(F)F)cc2)N2CCCCC[C@@H](C2=O)N(C)C(=O)CN(C)C1=O [PP0837]
NRAS /KRAS [1, 3]: B (a compound having 3 or more and less than 10 is denoted as B) | HRAS /KRAS (HRAS wild-type protein; [4]): B (a compound having 3 or more and less than 10 is denoted as B) | IC50 [2]: 63.4 nM

CCO[C@@H]1C[C@H]2C(=O)NC3(CCCC3)C(=O)N(C)[C@@H](C3CCCC3)C(=O)N(C)[C@H](C(=O)N3CCOCC3)CC(=O)N(C)[C@@H](CC(C)C)C(=O)N[C@@H]([C@@H](C)CC)C(=O)N(C)CC(=O)N(C)[C@H]3CCCCCN(C3=O)[C@@H](Cc3ccc(C(F)(F)F)cc3)C(=O)N(C)CC(=O)N[C@@H](CCc3cc(F)c(C(F)(F)F)c(F)c3)C(=O)N2C1 [PP0492]
NRAS /KRAS ([1]; ratio of the KD value with respect to GDP-bound NRAS wild-type protein to the KD value with respect to KRAS): B (a compound having 3 or more and less than 10 is denoted as B) | HRAS /KRAS (HRAS wild-type protein; ratio of the KD value with respect to HRAS wild-type protein to the KD value with respect to KRAS): B (a compound having 3 or more and less than 10 is denoted as B) | IC50 [2]: 31.9 nM

CCCC[C@@H]1NC(=O)[C@H](CCc2ccc(C(F)(F)F)c(Cl)c2)NC(=O)CN(C)C(=O)[C@H](Cc2ccc(C)cc2)N(CC)C(=O)[C@@H]2CCN2C(=O)[C@H](C)N(C)C(=O)[C@H]([C@@H](C)CC)NC(=O)[C@H](CC(C)C)N(C)C(=O)C[C@@H](C(=O)N2CCCCC2)N(C)C(=O)[C@H](CC(C)C)NC(=O)C(C)(C)N(C)C1=O [PP0048] ([NMeL]I[NMeA][Aze][NEtPhe(4-Me)][Sar][hPhe(3-Cl-4-CF3)][Nle][NMeAib]L[NMeD]-Piperidide; lactam N-11)
NRAS /KRAS [1, 3]: C (A compound having a KD ratio of 0.1 or more and less than 3 is denoted as C) | HRAS /KRAS (HRAS wild-type protein; [4]): C (A compound having a KD ratio of 0.1 or more and less than 3 is denoted as C) | IC50 [2]: 464 nM

CCO[C@@H]1C[C@H]2C(=O)NC3(CCC3)C(=O)N(C)[C@@H](C3CCCC3)C(=O)N(C)[C@H](C(=O)N3CCOCC3)CC(=O)N(C)[C@@H](CC)C(=O)N[C@@H]([C@@H](C)CC)C(=O)N(C)CC(=O)N(C)[C@H]3CC/C=C(/C)CN(C3=O)[C@@H](Cc3ccc(C(F)(F)F)cc3)C(=O)N(C)CC(=O)N[C@@H](CCc3cc(F)c(C(F)(F)F)c(F)c3)C(=O)N2C1 [PP1335]
NRAS /KRAS ([1]; ratio of KD with respect to GDP-bound NRAS wild-type protein to KD with respect to KRAS): B (a compound having 3 or more and less than 10 is denoted as B) | HRAS /KRAS (HRAS wild-type protein; ratio of KD with respect to HRAS wild-type protein to KD with respect to KRAS): B (a compound having 3 or more and less than 10 is denoted as B) | IC50 [2]: 736 nM

C=CC[C@H]1C(=O)N[C@@H]([C@@H](C)CC)C(=O)N(C)CC(=O)N(C)[C@H]2CCCCCN(C2=O)[C@@H](Cc2ccc(C(F)(F)F)cc2)C(=O)N(C)CC(=O)N[C@@H](CCc2cc(F)c(C(F)(F)F)c(F)c2)C(=O)N2C[C@H](OCC)C[C@H]2C(=O)N[C@](C)(CC=C)C(=O)N(C)[C@@H](C2CCCC2)C(=O)N(C)[C@H](C(=O)N2CCOCC2)CC(=O)N1C [PP0878]
NRAS /KRAS [1, 3]: B (a compound having 3 or more and less than 10 is denoted as B) | HRAS /KRAS (HRAS wild-type protein; [4]): B (a compound having 3 or more and less than 10 is denoted as B) | IC50 [2]: 85.9 nM

CCO[C@@H]1C[C@H]2C(=O)NC3(CC(C)(C)C3)C(=O)N(C)[C@@H](C3CCCC3)C(=O)N(C)[C@H](C(=O)N(C)CC)CC(=O)N(C)[C@H]3CCCC/C=C/c4ccc(cc4)C[C@@H](C(=O)N(C)CC(=O)N[C@@H](CCc4ccc(C(F)(F)F)c(OC)c4)C(=O)N2C1)N1CC/C=C\C[C@@H](C1=O)N(C)C(=O)CN(C)C(=O)[C@H]([C@@H](C)CC)NC3=O [PP1830]
NRAS /KRAS [1, 5]: A (a compound having 10 or more and less than 20 is denoted as A) | HRAS /KRAS (HRAS wild-type protein; [6]): B (a compound having 3 or more and less than 10 is denoted as B) | IC50 [2]: 4.7 nM

CCO[C@@H]1C[C@H]2C(=O)NC3(CC(C)(C)C3)C(=O)N(C)[C@@H](C(CC)CC)C(=O)N(C)[C@H](C(=O)N3CCCC3)CC(=O)N(C)[C@H]3CCC/C=C/c4ccc(cc4)C[C@@H](C(=O)N(C)CC(=O)N[C@@H](CCc4ccc(Cl)c(Cl)c4)C(=O)N2C1)N1CC/C=C\C[C@@H](C1=O)N(C)C(=O)CN(C)C(=O)[C@H]([C@@H](C)CC)NC3=O [PP2581]
NRAS /KRAS [1, 3]: AA (a compound having 20 or more is denoted as AA) | HRAS /KRAS (HRAS wild-type protein; [4]): A (a compound having 10 or more and less than 20 is denoted as A) | IC50 [2]: 32.1 nM

CCCN1C(=O)[C@@H]2CCN2C(=O)[C@H](C)N(C)C(=O)[C@H]([C@@H](C)CC)NC(=O)[C@H](CC(C)C)N(C)C(=O)C[C@@H](C(=O)N2CCC(C)(C)C2)N(C)C(=O)[C@H](C2CCCC2)N(C)C(=O)C2(CCCC2)NC(=O)[C@@H]2CCCN2C(=O)[C@H](CCc2ccc(C(F)(F)F)c(Cl)c2)NC(=O)CN(C)C(=O)[C@@H]1Cc1ccc(C(F)(F)F)cc1 [PP0186] ([NMeL]I[NMeA][Aze][NPrPhe(4-CF3)][Sar][hPhe(3-Cl-4-CF3)]P[Ac5c][NMeGly(cPent)][NMeD]-X11; lactam N-11)
NRAS /KRAS [1, 3]: C (A compound having a KD ratio of 0.1 or more and less than 3 is denoted as C) | HRAS /KRAS (HRAS wild-type protein; [4]): B (a compound having 3 or more and less than 10 is denoted as B) | IC50 [2]: 20.5 nM

CCCN1C(=O)CN(C)C(=O)CN(C)C(=O)[C@H]([C@@H](C)CC)NC(=O)[C@@H]2CCCCCN2C(=O)C[C@@H](C(=O)N2CCOCC2)N(C)C(=O)[C@H](C2CCCC2)N(C)C(=O)C2(CCCC2)NC(=O)[C@@H]2CCCN2C(=O)[C@H](CCc2ccc(C(F)(F)F)c(Cl)c2)NC(=O)CN(C)C(=O)[C@@H]1Cc1ccc(C(F)(F)F)cc1 [PP0247] ([hPip]I[Sar][Sar][NPrPhe(4-CF3)][Sar][hPhe(3-Cl-4-CF3)]P[Ac5c][NMeGly(cPent)][NMeD]-Morpholide; lactam N-11)
NRAS /KRAS [1, 3]: B (a compound having 3 or more and less than 10 is denoted as B) | HRAS /KRAS (HRAS wild-type protein; [4]): C (A compound having a KD ratio of 0.1 or more and less than 3 is denoted as C) | IC50 [2]: 41.3 nM
